{
  "source": "patent EP1024807B1",
  "about": "“USE OF THE COMPOUND 2-METHOXYPHENYL-1-METHYL-5P-METHYLBENZOYL-PYRROL-2-ACETAMIDO ACETATE FOR THE PRODUCTION OF AN ANTI-INFLAMMATORY DRUG WITH PREVENTION OF GASTRIC HYPERSECRETION AND RENAL IMPAIRMENT” (MEDOSAN Ricerca S.r.l., priority 1997, dated 1999)",
  "key": {"rat bone marrow": {"system": "rat bone marrow", "experiment": "Micronucleus test", "conditions": "in vivo"}, "rat": {"system": "rat", "experiment": "Fertility, embryotoxicity and teratogenicity studies", "format": "in vivo"}, "[1]": {"system": "gastric bicarbonate secretion", "experiment": "Gastric bicarbonate secretion after stimulation with histamine", "format": "in vivo, rat", "conditions": "fig. 6"}, "osteoarthritis": {"system": "osteoarthritis", "experiment": "Clinical trials in osteoarthritis", "format": "in vivo, man", "conditions": "550 patients, mean 80 days; versus seven reference NSAIDs; listed as Amtolmetin guacyl", "excerpt": "In this degenerative disease amtolmetin guacyl was compared with diclofenac, diflunisal, flurbiprofen, ibuprofen, ketoprofen, naproxen and tolmetin."}, "gastric mucosa": {"system": "gastric mucosa", "experiment": "Gastroprotective action in vivo with an H1 receptor inhibitor", "design": "species or system rat", "conditions": "in the presence of an inhibitor of H1 receptors, fig. 17 and 18", "excerpt": "In the in vivo experimentation, evaluated as effect of the product both on gastric mucosal secretion and on the healthy condition of the mucosa itself, it was noted that in the presence of an inhibitor of H1 receptors (therefore a typical antihistamine agent), the gastroprotective effect of amtolmetin guacyl drops out. […] All of this constitutes a precise forewarning of the association of amtolmetin guacyl with H1 receptor inhibiting substances on pain of loss of the gastroprotective properties of the former (fig. 17 and 18)."}, "[2]": {"system": "extra-articular rheumatism", "experiment": "Clinical trials in extra-articular rheumatism", "format": "in vivo, man", "conditions": "90 patients, 14 days; versus diclofenac, naproxen, piperazine propionate", "excerpt": "In extra-articular rheumatism amtolmetin guacyl was compared with diclofenac, naproxen and piperazine propionate."}, "Acute toxicity studies": {"experiment": "Acute toxicity studies", "conditions": "in vivo"}, "post-operative pain": {"system": "post-operative pain", "experiment": "Clinical trials in post-operative pain", "format": "in vivo, man", "description": "As reported in Table 14, the analgesic properties of amtolmetin guacyl were tested in postoperative pain with good results. […] The peak effect is obtained only after 2 hours, and it is maintained for 6 hours."}},
  "note": "“Also recorded” adds a separate entry of the source.",
  "data": [
    {"smiles": "COc1ccccc1OC(=O)CNC(=O)Cc1ccc(C(=O)c2ccc(C)cc2)n1C", "note": "[MED 15, 2-methoxyphenyl-1-methyl-5p-methylbenzoylpyrrol-2-acetamido acetate]", "values": [
      {"measurement": "micronucleus test", "setting": "rat bone marrow", "result": "absence of amtolmetin guacyl-related damage"},
      {"measurement": "fertility, embriotoxicity and teratogenicity", "setting": "rat", "result": "safety"},
      {"measurement": "increase in bicarbonate production", "setting": "[1]", "result": 67, "unit": "%"},
      {"measurement": "Evaluation of antiphlogistic activity", "setting": "osteoarthritis", "result": "statistically significant more rapid and more marked activity; also recorded: Amtolmetin guacyl was more rapid and more active in a statistically significant manner in osteoarthritis compared to the reference NSAIDs"},
      {"measurement": "gastroprotective effect", "setting": "gastric mucosa", "result": "drops out"},
      {"measurement": "Evaluation of antiphlogistic activity", "setting": "[2]", "result": "In this indication no significant differences were noted between amtolmetin guacyl and the reference compounds."},
      {"measurement": "acute toxicity, tolerability", "setting": "Acute toxicity studies", "result": "excellent drug tolerability"},
      {"measurement": "time at which the effect is already evaluable", "setting": "post-operative pain; following administration", "result": "30 '"},
      {"measurement": "antalgic effect", "setting": "post-operative pain; post-operative pain", "result": "statistically significant"},
      {"measurement": "time the effect is maintained", "setting": "post-operative pain; post-operative pain", "result": 6, "unit": "h"},
      {"measurement": "time to peak effect", "setting": "post-operative pain; post-operative pain", "result": 2, "unit": "h"}
    ]}
  ]
}
